Measured values published in ChEMBL document CHEMBL5380773, “Novel Feleucin-K3-Derived Peptides Modified with Sulfono-γ-AA Building Blocks Targeting Pseudomonas aeruginosa and Methicillin-Resistant Staphylococcus aureus Infections” (J Med Chem, 2023).
The source made the active and inactive calls. No cut-off for these calls is given here. Numbered stars: 1 amine (or outer) side, 2 acyl side, 3 side chain; on linkers, the order of the positions; unused ones are H or OH. Square brackets hold non-standard residues; d marks the D form. Peptide text beside a SMILES is read from it. * marks the point of attachment. X2 = CC(C)C[C@H](N)CN(CC(=O)[*:2])[*:1]; X1 = O=S(=O)(c1ccc(I)cc1)*

Experiments:
[1] = test system: Staphylococcus epidermidis; experiment: Antibiofilm activity against Staphylococcus epidermidis ATCC 12228 at 4 to 8 ug/ml incubated for 24 hrs by crystal violet staining based microplate reader analysis; type: functional, organism-based; conditions: dose 4-8 µg/ml
[2] = test system: Pseudomonas aeruginosa; experiment: Bactericidal activity against Pseudomonas aeruginosa ATCC 27853 at 4 times MIC after 30 mins by time kill assay; type: functional, organism-based

For `CC(C)C[C@H](N)CN(CC(=O)N[C@@H](CCCCN)C(=O)N[C@@H](CC(C)C)C(=O)N[C@@H](CC(C)C)C(=O)N[C@@H](CCCCN)C(=O)N[C@@H](CCCCN)C(=O)N[C@@H](CC(C)C)C(=O)N[C@@H](CC(C)C)C(N)=O)S(=O)(=O)c1ccc(I)cc1` (X1-[X2]KLLKKLL-NH2), which Activity [1] is on record?
Its Activity is “Active”.

What about the Activity [2] of the same compound?
Its Activity is “Active”.
